Test results taken from US12077503B2, “Substituted cyclic amides and their use as herbicides” (FMC CORPORATION, priority 2015, dated 2024).

Experiments:
Assay type in all cases: in vivo
[1] = system: barnyardgrass (Echinochloa crus-galli); assay: Test G Pre-Emergence Protocol; conditions: Echinochloa crus-galli, pre-emergence, 312 h, evaluated after 13 days
Method in brief: (§1)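 Glasshouse pre-emergence test: soil-sown seeds, sprayed after 1 d at 15.625, 62.5 or 250 g/ha. Conditions 24/16° C day/night, 14 h light, 65% humidity, watering twice daily. Rating 13 d post-spray (100 = total damage).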

corn (Zea mays) [2] = assay: Test G Pre-Emergence Protocol; conditions: Zea mays, pre-emergence, 312 h, evaluated after 13 days
Method in brief: as §1

[3] = system: giant foxtail (Setaria faberi); assay: Test G Pre-Emergence Protocol; conditions: Setaria faberi, pre-emergence, 312 h, evaluated after 13 days
Method in brief: as §1

[4] = system: ivy-leaved morning glory (Ipomoea hederacea); assay: Test G Pre-Emergence Protocol; conditions: Ipomoea, pre-emergence, 312 h, evaluated after 13 days
Method in brief: as §1

[5] = system: redroot pigweed (Amaranthus retroflexus); assay: Test G Pre-Emergence Protocol; conditions: Amaranthus retroflexus, pre-emergence, 312 h, evaluated after 13 days
Method in brief: as §1

[6] = system: velvetleaf (Abutilon theophrasti); assay: Test G Pre-Emergence Protocol; conditions: Abutilon theophrasti, pre-emergence, 312 h, evaluated after 13 days
Method in brief: as §1

[7] = system: barnyardgrass (Echinochloa crus-galli); assay: Test G Post-Emergence Protocol; conditions: Echinochloa crus-galli, post-emergence, 312 h
Method in brief: (§2)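 Foliar application was made 8 days after sowing, using an aqueous spray of the active in acetone/water (50:50) with 0.5% Tween 20, at doses of 15.625, 62.5 or 250 g/ha. Injury was assessed 13 days later, where 100 meant the plant was fully damaged.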

corn (Zea mays) [8] = assay: Test G Post-Emergence Protocol; conditions: Zea mays, post-emergence, 312 h
Method in brief: as §2

[9] = system: giant foxtail (Setaria faberi); assay: Test G Post-Emergence Protocol; conditions: Setaria faberi, post-emergence, 312 h
Method in brief: as §2

[10] = system: ivy-leaved morning glory (Ipomoea hederacea); assay: Test G Post-Emergence Protocol; conditions: Ipomoea, post-emergence, 312 h
Method in brief: as §2

[11] = system: redroot pigweed (Amaranthus retroflexus); assay: Test G Post-Emergence Protocol; conditions: Amaranthus retroflexus, post-emergence, 312 h
Method in brief: as §2

[12] = system: velvetleaf (Abutilon theophrasti); assay: Test G Post-Emergence Protocol; conditions: Abutilon theophrasti, post-emergence, 312 h
Method in brief: as §2

Cc1cncc(NC(=O)[C@@H]2C(=O)N(C)C[C@H]2c2ccc(C(F)(F)F)cc2)n1 (racemic) [Compound 1647]
50%: pest or weed control at 250 g/ha ([7]; 250 g ai/ha, evaluated after 13 days, read-out: damage to plant, Barnyardgrass (100=total damage to plant; 0=no damage to plant))
10%: pest or weed control at 250 g/ha ([6]; 250 g ai/ha, read-out: Velvetleaf damage rating (100=total damage to plant; 0=no damage to plant)) | plant injury at 250 g/ha (corn (Zea mays) [8]; 250 g ai/ha, evaluated after 13 days, read-out: damage to plant, Corn (100=total damage to plant; 0=no damage to plant))
40%: pest or weed control at 250 g/ha ([12]; 250 g ai/ha, evaluated after 13 days, read-out: damage to plant, Velvetleaf (100=total damage to plant; 0=no damage to plant))
30%: pest or weed control at 62.5 g/ha ([9]; 62.5 g ai/ha, evaluated after 13 days, read-out: Foxtail, Giant damage rating (100=total damage to plant; 0=no damage to plant)) | pest or weed control at 250 g/ha ([11]; 250 g ai/ha, evaluated after 13 days, read-out: damage to plant, Pigweed, Redroot (100=total damage to plant; 0=no damage to plant))
70%: pest or weed control at 250 g/ha ([3]; 250 g ai/ha, read-out: Foxtail, Giant damage rating (100=total damage to plant; 0=no damage to plant)) | pest or weed control at 250 g/ha ([9]; 250 g ai/ha, evaluated after 13 days, read-out: damage to plant, Foxtail, Giant (100=total damage to plant; 0=no damage to plant))
20%: pest or weed control at 250 g/ha ([5]; 250 g ai/ha, read-out: Pigweed, Redroot damage rating (100=total damage to plant; 0=no damage to plant)) | pest or weed control at 250 g/ha ([10]; 250 g ai/ha, evaluated after 13 days, read-out: damage to plant, Morningglory, Ivy-leaved (100=total damage to plant; 0=no damage to plant))
0%: pest or weed control at 15.625 g/ha ([1]; 15.625 g ai/ha, read-out: Barnyard grass damage rating (100=total damage to plant; 0=no damage to plant)) | pest or weed control at 62.5 g/ha ([1]; 62.5 g ai/ha, 100=total damage to plant, 0=no damage to plant, read-out: plant damage rating, Barnyardgrass) | pest or weed control at 250 g/ha ([1]; 250 g ai/ha, read-out: Barnyardgrass damage rating (100=total damage to plant; 0=no damage to plant)) | plant injury at 15.625 g/ha (corn (Zea mays) [2]; 15.625 g ai/ha, read-out: Corn damage rating (100=total damage to plant; 0=no damage to plant)) | plant injury at 62.5 g/ha (corn (Zea mays) [2]; 62.5 g ai/ha, 100=total damage to plant, 0=no damage to plant, read-out: plant damage rating, Corn) | plant injury at 250 g/ha (corn (Zea mays) [2]; 250 g ai/ha, read-out: Corn damage rating (100=total damage to plant; 0=no damage to plant)) | pest or weed control at 15.625 g/ha ([3]; 15.625 g ai/ha, read-out: Foxtail, Giant damage rating (100=total damage to plant; 0=no damage to plant)) | pest or weed control at 62.5 g/ha ([3]; 62.5 g ai/ha, 100=total damage to plant, 0=no damage to plant, read-out: plant damage rating, Foxtail, Giant) | pest or weed control at 15.625 g/ha ([4]; 15.625 g ai/ha, read-out: Morning-glory, Ivy-leaved damage rating (100=total damage to plant; 0=no damage to plant)) | pest or weed control at 62.5 g/ha ([4]; 62.5 g ai/ha, 100=total damage to plant, 0=no damage to plant, read-out: plant damage rating, Morningglory, Ivy-leaved) | pest or weed control at 250 g/ha ([4]; 250 g ai/ha, read-out: Morningglory, Ivy-leaved damage rating (100=total damage to plant; 0=no damage to plant)) | pest or weed control at 15.625 g/ha ([5]; 15.625 g ai/ha, read-out: Pigweed, Redroot damage rating (100=total damage to plant; 0=no damage to plant)) | pest or weed control at 62.5 g/ha ([5]; 62.5 g ai/ha, 100=total damage to plant, 0=no damage to plant, read-out: plant damage rating, Pigweed, Redroot) | pest or weed control at 15.625 g/ha ([6]; 15.625 g ai/ha, read-out: Velvetleaf damage rating (100=total damage to plant; 0=no damage to plant)) | pest or weed control at 62.5 g/ha ([6]; 62.5 g ai/ha, 100=total damage to plant, 0=no damage to plant, read-out: plant damage rating, Velvetleaf) | pest or weed control at 15.625 g/ha ([7]; 15.625 g ai/ha, evaluated after 13 days (100=total damage to plant; 0=no damage to plant), read-out: Barnyardgrass damage rating) | pest or weed control at 62.5 g/ha ([7]; 62.5 g ai/ha, evaluated after 13 days, read-out: Barnyardgrass damage rating (100=total damage to plant; 0=no damage to plant)) | plant injury at 15.625 g/ha (corn (Zea mays) [8]; 15.625 g ai/ha, evaluated after 13 days (100=total damage to plant; 0=no damage to plant), read-out: Corn damage rating) | plant injury at 62.5 g/ha (corn (Zea mays) [8]; 62.5 g ai/ha, evaluated after 13 days, read-out: Corn damage rating (100=total damage to plant; 0=no damage to plant)) | pest or weed control at 15.625 g/ha ([9]; 15.625 g ai/ha, evaluated after 13 days (100=total damage to plant; 0=no damage to plant), read-out: Foxtail, Giant damage rating) | pest or weed control at 15.625 g/ha ([10]; 15.625 g ai/ha, evaluated after 13 days (100=total damage to plant; 0=no damage to plant), read-out: Morningglory, Ivy-leaved damage rating) | pest or weed control at 62.5 g/ha ([10]; 62.5 g ai/ha, evaluated after 13 days, read-out: Morningglory, Ivy-leaved damage rating (100=total damage to plant; 0=no damage to plant)) | pest or weed control at 15.625 g/ha ([11]; 15.625 g ai/ha, evaluated after 13 days (100=total damage to plant; 0=no damage to plant), read-out: Pigweed, Redroot damage rating) | pest or weed control at 62.5 g/ha ([11]; 62.5 g ai/ha, evaluated after 13 days, read-out: Pigweed, Redroot damage rating (100=total damage to plant; 0=no damage to plant)) | pest or weed control at 15.625 g/ha ([12]; 15.625 g ai/ha, evaluated after 13 days (100=total damage to plant; 0=no damage to plant), read-out: Velvetleaf damage rating) | pest or weed control at 62.5 g/ha ([12]; 62.5 g ai/ha, evaluated after 13 days, read-out: Velvetleaf damage rating (100=total damage to plant; 0=no damage to plant))
